# Source: patent publication US8455549B2, “Carbonylamino derivatives useful for the treatment of certain inflammatory disorders” (Aniona Aps, priority 0207, dated 2013)
# Test system: DNBS-induced distal colitis
# Assay: Inhibition of 2,4-Dinitrobenzenesulfonic Acid (DNBS)-induced distal colitis in rats
# Type: in vivo, rat
# Conditions: PO bid × 7, dose not specified
# Experimental: Test substances A and B were evaluated for possible inhibition of 2,4-Dinitrobenzenesulfonic Acid (DNBS)-induced distal colitis in rats, which is a model of inflammatory bowel disease. The test compounds were soluble in a mixture of Cremophore EL, PEG400 and distilled water (10:10:80). Test substance was administered orally (PO) twice daily for 7 consecutive days. The dosing volume used was 10 ml/kg for PO. For test of Compound A groups of 10 Wistar derived male rats (BioLasco Taiwan) weighing 200±10 g were used. For test of Compound B groups of 5 Wistar derived male rats (BioLasco Taiwan) weighing 210±5 g were used. […] During the experiment, faecal occult blood and stool consistency were monitored daily. […] Also, the presence of colonic ulceration after removal and weighing of each colon (a macroscopic damage score) was recorded. […] The colon-to-body weight ratio was calculated according to the formula: (A) Colon-to-Body weight ratio (Colon weight/100 g B. W.) for each rat in respective treatment groups (vehicle blank, vehicle+DNBS, Test substance+DNBS and positive reference agent+DNBS) (B) The Net Increase of Colon weight/100 g B. W. For “vehicle+DNBS”: [(vehicle+DNBS)−(vehicle blank)] mean value of colon-to-body weight ratio For “test substance+DNBS”: [(test substance+DNBS)−(vehicle blank)] mean value of colon-to-body weight ratio (C) The percent decrease of colon weight/100 g B. Wt. […]
row,SMILES,"stool consistency, occult faecal blood and macroscopic damage (adhesion and ulcers) in the colon"
1,"NC(=O)C(c1ccccc1)(c1ccc(F)cc1)c1ccc(F)cc1 [Compound B, 2,2-Bis-(4-fluoro-phenyl)-2-phenyl-acetamide]",improved
2,"CC(C)C(C(N)=O)(c1ccc(F)cc1)c1ccc(F)cc1 [Compound A, 2,2-Bis-(4-fluoro-phenyl)-3-methyl-butyramide]",improved
